The target in the test is T1, CaMKIIδ (Homo sapiens, UniProt Q13557).
T1 construct: gene CAMK2D; recombinant CaMKIIδ (Invitrogen)
Nature of the test: in vitro kinase assay with autocamtide-2 peptide, ADP quantification. Format: biochemical.

Structures are written as SMILES. pIC50: −log10 of the molar value.

T1 sequence (Q13557 2-499): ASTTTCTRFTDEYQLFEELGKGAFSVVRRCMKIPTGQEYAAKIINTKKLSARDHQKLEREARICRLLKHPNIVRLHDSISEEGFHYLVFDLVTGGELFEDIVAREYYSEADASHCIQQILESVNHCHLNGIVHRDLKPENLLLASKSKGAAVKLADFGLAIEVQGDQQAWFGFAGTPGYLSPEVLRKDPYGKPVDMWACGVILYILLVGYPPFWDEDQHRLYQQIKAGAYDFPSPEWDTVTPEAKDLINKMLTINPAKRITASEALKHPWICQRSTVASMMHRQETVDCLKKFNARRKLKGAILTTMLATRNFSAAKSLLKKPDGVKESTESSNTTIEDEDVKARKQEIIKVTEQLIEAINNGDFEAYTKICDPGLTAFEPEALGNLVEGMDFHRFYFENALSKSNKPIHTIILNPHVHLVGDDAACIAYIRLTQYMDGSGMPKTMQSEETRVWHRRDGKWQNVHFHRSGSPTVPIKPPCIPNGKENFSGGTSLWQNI

`COc1ccc(S(=O)(=O)N(CCO)c2ccccc2CN(C)C/C=C/c2ccc(Cl)cc2)cc1` [KN93] had a pIC50 of 5.20.
As to `COc1ccc(-c2cc(=O)c3c(O)cc(O[C@@H]4O[C@H](CO)[C@@H](O)[C@H](O)[C@H]4O)cc3o2)cc1` [tilianin], the pIC50 was less than 4.00.
